Laboratory results from patent US5607926A, “Cephalosporin antibiotics” (Microcide Pharmaceuticals, Inc., priority 1995, dated 1997).
In brackets after ≈: the same amount, converted by molar mass. Counter-ions that a name gives are not always drawn. Like-named read-outs stand apart in the source and are kept apart here.

What was measured:
Assay type in all cases: cell-based
S. aureus ATCC 29213 = assay: In vitro antibacterial evaluation, MIC by agar dilution, S. aureus ATCC 29213; conditions: Staphylococcus aureus, ATCC29213
Procedure: (§1) The compounds of the invention were evaluated against several β-lactamresistant bacteria strains by determining the minimum inhibitory concentration (MIC, μg/ml) of each compound with respect to each strain. The MIC, the lowest concentration of antibiotic which inhibits growth of the test organism, was determined by the agar dilution method.
(§2) To determine the MIC for bacterial isolates, the test compound was incorporated in a series of two-fold dilutions into liquified Mueller-Hinton agar. Upon solidification, a number of different bacterial strains were spot inoculated with a replicating device onto the agar surface. […] The procedures used in these studies have been standardized by the National Committee for Clinical Laboratory Standards (NCCLS), as per the NCCLS publication entitled METHODS FOR DILUTION ANTIMICROBIAL SUSCEPTIBILITY TESTS (1991), which is incorporated herein by reference.
(§3) Aliquots of antimicrobial agents were prepared in phosphate buffered saline (PBS) at pH 7.2. Tween 20 or DMSO was used as a solubilizing vehicle as needed. Standard methods of vortexing, sonicating and gentle heat were used to facilitate solubilizing the test agent. Typically, the concentration of the stock solution was 10× that of the highest drug concentration tested. A 1.28 mg/mL stock solution was used with a subsequent highest working concentration of 128 μg/mL. Serial two-fold dilutions were done through ≤0.25 μg/mL. Each drug level was tested in duplicate. Two-fold drug dilutions were done in sterile 50 mL tubes with a final drug volume of 5 mL. Upon the addition of 45 mL of molten agar, a 10-fold dilution resulted. Two, 25 mL. plates were then poured into 15×150 mm square Petri plates with grids and allowed to harden.
(§4) A control plate with a reference drug, either cefotaxime, vancomycin or imipenem, was used as the positive growth control. Stock concentrations of reference antibiotics were prepared and frozen at -80° C. Upon preparation, the control plates were sealed and stored in the refrigerator for up to 1 week prior to use; however, imipenem control plates had to be prepared just prior to use. All test plates were used within 24 hours of preparation.
(§5) Satisfactory results were obtained where the inoculum contained about 10^4 colony forming units (cfu) ±0.5 logs. Starting with pure cultures of the test isolates on agar plates, a few isolated colonies were transferred to a tube of nutrient broth and allowed to grow 4-6 hours at 35°-36° C. to reach log-phase growth. Dropwise addition of the broth culture to PBS was done to match a 0.5 McFarland turbidity standard equal to 10^8 cfu/mL. This was further diluted ten-fold in PBS to reach a working inoculum concentration of 10^7 cfu/mL. When 1 μL of the working inoculum was applied to the agar surface a concentration of about 10^4 cfu per spot was obtained.
(§6) Disposable sterile 1 μL loops were used to inoculate test plates, with each isolate in a designated grid on the agar plate. An alternate method of inoculation involved the use of a replica plater, a device with 48 steel pins allowing the simultaneous inoculation of multiple isolates. After the spots had dried, the plates were incubated at 35°-36° C. for 16-20 hours. Endpoints were assessed as the minimum inhibitory concentration (MIC) of antimicrobial agent.

[1] = tested on: S. epidermidis ATCC 31432; assay: In vitro antibacterial evaluation, MIC by agar dilution, S. epidermidis ATCC 31432; conditions: Staphylococcus epidermidis, ATCC31432
Procedure: as §1, §2, §3, §4, §5, §6

[2] = tested on: S. aureus 76 (Meth^R)(lac^+); assay: In vitro antibacterial evaluation, MIC by agar dilution, S. aureus 76; conditions: Staphylococcus aureus, read-out: MIC
Procedure: as §1, §2, §3, §4, §5, §6

[3] = tested on: S. aureus Col8A (Meth^S)(lac^-); assay: In vitro antibacterial evaluation, MIC by agar dilution, S. aureus Col8A; conditions: Staphylococcus aureus
Procedure: as §1, §2, §3, §4, §5, §6
The novel agents of this invention are notable for their enhanced activity against S. aureus Col and Enterococci (E. faecium and E. faecalis). The S. aureus Col strain is a high-level PBP2a producer, whereas S. aureus Col 8A, its isogenic partner, lacks PBP2a. […] Thus, the compounds of the present invention are effective against PBP2a-producing bacteria.

S. haemolyticus (Meth^R) = assay: In vitro antibacterial evaluation, MIC by agar dilution, S. haemolyticus; conditions: Staphylococcus haemolyticus, read-out: MIC
Procedure: as §1, §2, §3, §4, §5, §6

E. faecium ATCC 35667 = assay: In vitro antibacterial evaluation, MIC by agar dilution, E. faecium ATCC 35667; conditions: Enterococcus faecium, ATCC35667, read-out: MIC
Procedure: as §1, §2, §3, §4, §5, §6

E. coli ATCC 25922 = assay: In vitro antibacterial evaluation, MIC by agar dilution, E. coli ATCC 25922; conditions: Escherichia coli, ATCC25922, read-out: MIC
Procedure: as §1, §2, §3, §4, §5, §6

E. faecalis ATCC 29212 = assay: In vitro antibacterial evaluation, MIC by agar dilution, E. faecalis ATCC 29212; conditions: Enterococcus faecalis, ATCC29212; E. faecalis ATCC 29212; read-out: MIC
Procedure: as §1, §2, §3, §4, §5, §6

P. aeruginosa ATCC 27853 = assay: In vitro antibacterial evaluation, MIC by agar dilution, P. aeruginosa ATCC 27853; conditions: Pseudomonas aeruginosa, ATCC27853, read-out: MIC
Procedure: as §1, §2, §3, §4, §5, §6

[4] = S. aureus ATCC 29213, read-out: MIC

| Compound | MIC (S. aureus ATCC 29213) [µg/mL] | MIC [1] [µg/mL] | MIC [2] [µg/mL] | MIC [3] [µg/mL] | MIC (S. haemolyticus (Meth^R)) [µg/mL] | MIC (E. faecium ATCC 35667) [µg/mL] | MIC (E. coli ATCC 25922) [µg/mL] | MIC ([1]; S. epidermidis ATCC 31432, read-out: MIC) [µg/mL] | MIC (S. aureus ATCC 29213; [4]) [µg/mL] | MIC (E. faecalis ATCC 29212) [µg/mL] | MIC (P. aeruginosa ATCC 27853) [µg/mL] |
| --- | --- | --- | --- | --- | --- | --- | --- | --- | --- | --- | --- |
| O=C(COc1ccc(Cl)cc1)N[C@@H]1C(=O)N2C(C(=O)O)=C(Sc3cc(Cl)ccc3Cl)CS[C@H]12 [Cmpd 31, (7R)-7-[(p-Chlorophenoxyacetyl)amino]-3-(2,5-dichlorophenylthio)-3-cephem-4-carboxylic acid] | < 0.25 | < 0.25 | 4 (≈ 7.33 µM) | < 0.25 | 8 (≈ 14.7 µM) | 4 (≈ 7.33 µM) | > 32 | – | – | – | – |
| O=C(Cc1ccccc1)N[C@@H]1C(=O)N2C(C(=O)O)=C(Sc3cc(F)ccc3Br)CS[C@H]12 [Cmpd 33, (7R)-7-[(Phenylacetyl)amino]-3-(2-bromo-5-fluorophenylthio)-3-cephem-4-carboxylic acid] | < 0.25 | < 0.25 | 4 (≈ 7.64 µM) | < 0.25 | 16 (≈ 30.6 µM) | 1 (≈ 1.91 µM) | > 32 | – | – | – | – |
| O=C(Cc1ccccc1)N[C@@H]1C(=O)N2C(C(=O)O)=C(Sc3ccccc3-c3ccco3)CS[C@H]12 [Cmpd 27, (7R)-7-[(Phenylacetyl)amino]-3-(2-(2-furyl)phenylthio)-3-cephem-4-carboxylic acid] | < 0.25 | < 0.25 | 4 (≈ 8.12 µM) | < 0.25 | 16 (≈ 32.5 µM) | 1 (≈ 2.03 µM) | > 32 | – | – | – | – |
| O=C(Cc1cccs1)N[C@@H]1C(=O)N2C(C(=O)O)=C(Sc3ccccc3Br)CS[C@H]12 [Cmpd 20, (7R)-7-[(2-Thienylacetyl)amino]-3-(o-bromophenylthio)-3-cephem-4-carboxylic acid] | < 0.25 | < 0.25 | 4 (≈ 7.82 µM) | < 0.25 | 8 (≈ 15.6 µM) | 2 (≈ 3.91 µM) | > 32 | – | – | – | – |
| O=C(Cc1ccccc1)N[C@@H]1C(=O)N2C(C(=O)O)=C(Sc3cc(Cl)ccc3Cl)CS[C@H]12 [Cmpd 16, (7R)-7-[(Phenylacetyl)amino]-3-(2,5-dichlorophenylthio)-3-cephem-4-carboxylic acid] | – | – | 4 (≈ 8.07 µM) | – | 16 (≈ 32.3 µM) | 4 (≈ 8.07 µM) | > 16 | < 0.5 | – | – | – |
| O=C(Cc1ccccc1)N[C@@H]1C(=O)N2C(C(=O)O)=C(Sc3cccc4oc5ccccc5c34)CS[C@H]12 [Cmpd 21, (7R)-7-[(Phenylacetyl)amino]-3-(dibenzofuranyl-1-thio)-3-cephem-4-carboxylic acid] | < 0.25 | < 0.25 | 4 (≈ 7.74 µM) | < 0.25 | 32 (≈ 61.9 µM) | 4 (≈ 7.74 µM) | > 32 | – | – | – | – |
| COC(=O)c1ccccc1SC1=C(C(=O)O)N2C(=O)[C@@H](NC(=O)Cc3ccccc3)[C@H]2SC1 [Cmpd 19, (7R)-7-[(Phenylacetyl)amino]-3-(o-carbomethoxyphenylthio)-3-cephem-4-carboxylic acid] | < 0.25 | < 0.25 | 16 (≈ 33 µM) | < 0.25 | 32 (≈ 66 µM) | 2 (≈ 4.13 µM) | > 32 | – | – | – | – |
| COc1ccc(CC(=O)N[C@@H]2C(=O)N3C(C(=O)O)=C(Sc4ccccc4I)CS[C@H]23)cc1 [Cmpd 29, (7R)-7-[(p-Methoxyphenylacetyl)amino]-3-(o-iodophenylthio)-3-cephem-4-carboxylic acid] | < 0.25 | < 0.25 | 4 (≈ 6.87 µM) | < 0.25 | 16 (≈ 27.5 µM) | 1 (≈ 1.72 µM) | > 32 | – | – | – | – |
| O=C(O)C1=C(Sc2ccnn2-c2ccccc2)CS[C@@H]2[C@H](NC(=O)C(=NO)c3ccco3)C(=O)N12 [Cmpd 121, (7R)-7-[2-(2-furyl)-2-(hydroxyimino)acetamido]-3-(1-N-phenylpyrazol-5-ylthio)-3-cephem-4-carboxylic acid] | – | – | 8 (≈ 15.6 µM) | 0.5 (≈ 0.977 µM) | 16 (≈ 31.3 µM) | 2 (≈ 3.91 µM) | > 32 | – | 0.5 (≈ 0.977 µM) | 0.5 to 1 (≈ 0.977 to 1.95 µM) | > 32 |
| CSCC(=O)N[C@@H]1C(=O)N2C(C(=O)O)=C(Sc3ccccc3CNC(=N)N)CS[C@H]12 [Cmpd 135, (7R)-7-[(Methylthioacetyl)amino]-3-(2-guanidiniummethylphenylthio)-3-cephem-4-carboxylate, inner salt] | – | – | 16 | ≤ 0.06 | 32 | 2 to 4 | > 32 | – | 0.125 | 2 to 4 | > 32 |
| COc1ccc(-n2nccc2SC2=C(C(=O)O)N3C(=O)[C@@H](NC(=O)Cc4ccccc4)[C@H]3SC2)cc1 [Cmpd 114, (7R)-7-[(Phenylacetyl)amino]-3-(1-N-(4-methoxyphenyl)pyrazol-5-ylthio)-3-cephem-4-carboxylic acid] | – | – | 16 (≈ 30.6 µM) | 0.125 (≈ 0.239 µM) | 32 (≈ 61.2 µM) | 2 (≈ 3.83 µM) | > 32 | – | 0.25 (≈ 0.478 µM) | 1 (≈ 1.91 µM) | > 32 |
| N=C(NC1CC1)SCc1ccccc1SC1=C(C(=O)O)N2C(=O)[C@@H](NC(=O)Cc3ccccc3)[C@H]2SC1 [Cmpd 79, (7R)-7-[(Phenylacetyl)amino]-3-(2-N-cyclopropylisothiouroniummethylphenylthio)-3-cephem-4-carboxylate, inner salt] | – | – | 8 | 0.06 | 32 | 2 | > 32 | – | 0.06 | 1 | > 32 |
| COc1cccc(-n2nccc2SC2=C(C(=O)O)N3C(=O)[C@@H](NC(=O)Cc4ccccc4)[C@H]3SC2)c1 [Cmpd 117, (7R)-7-[(Phenylacetyl)amino]-3-(1-N-(3-methoxyphenyl)pyrazol-5-ylthio)-3-cephem-4-carboxylic acid] | – | – | 16 (≈ 30.6 µM) | 0.125 (≈ 0.239 µM) | 32 (≈ 61.2 µM) | 1 (≈ 1.91 µM) | > 32 | – | 0.25 (≈ 0.478 µM) | 2 (≈ 3.83 µM) | > 32 |
